Assay results as given in patent US20110213025A1, “Catheter Lock Solutions Utilizing Tocopherol and Mid-Chain Fatty Acids” (ProviFlo, LLC, priority 2009, published 2011).

Assay: saturation point of dodecanoic acid in the liquid lock components at room temperature
Type: physicochemical
Conditions: without heating, soluble in octanoic acid, decanoic and tocopherol, weight/volume
Excerpt: In a fifth aspect of the present invention, a hydrophobic antimicrobial catheter lock solution includes alpha-tocopherol, in a concentration of 0% to 50% by volume/volume and mid-chain fatty acids. The fatty acids may include any combination of octanoic acid (0% to 25% volume/volume), decanoic acid (0% to 12.5% volume/volume), and/or dodecanoic acid (0% to 12.5% weight/volume). The combined formula after dissolving and mixing the chosen mid-chain fatty acid(s) is adjusted to a final volume with the alpha-tocopherol so that the solution has a viscosity greater than about 3 mPa·s. The lock has a viscosity in the range of about 3-5 mPa·s. Dodecanoic acid is a solid soluble in octanoic acid, decanoic and tocopherol. Concentrations of dodecanoic acid of less than about 25% dissolve readily without heating (i.e. 25% is approximately the saturation point of dodecanoic acid at room temperature). Optimal concentrations are most easily achieved by dissolution of dodecanoic acid in octanoic acid prior to adding the tocopherol. Of course, it is also possible to mix any or all of the liquid ingredients (i.e. octanoic acid and/or decanoic acid and/or tocopherol) together first and secondarily dissolve the dodecanoic acid. Alternatively, dodecanoic acid could be mixed with any of the liquids and the remaining liquid components added depending on the concentration of dodecanoic acid. […]

CCCCCCCCCCCC(=O)O [dodecanoic acid]
saturation point of dodecanoic acid: about 25%
